In the NIST ThermoML archive (doi:10.1016/j.jct.2017.06.018):

Details: Liquid, Closed cell (Static) method

C=C(F)C(F)(F)F [2,3,3,3-tetrafluoro-1-propene]
Details | vapor or sublimation pressure [kPa]
243.15 K | 99.4
248.15 K | 123.2
253.15 K | 151.4
258.15 K | 184.2
263.15 K | 222.4
268.15 K | 266.9
273.15 K | 317.2
278.15 K | 374.4
283.15 K | 438.5
288.15 K | 511.9
293.15 K | 591.7
